Structures are written as SMILES.

Series [1] is described as follows: Unbound fraction in iv dosed human plasma. It counts as ADME, organism-based.
Series [2] can be described thus: Intrinsic clearance in human hepatocytes from chimeric mouse with humanized liver assessed per 10^6 cells at 10 uM after 0.25 to 2 hrs by LC-MS/MS method. It counts as ADME, cell-based, Hepatocyte. The settings on record: read-out: CLH.
The nature of series [3]: Total clearance in chimeric mouse with humanized liver at 3 mg/kg, iv by LC-MS/MS method. It counts as ADME, organism-based. Also on record: dose 3 mg/kg, route intravenous. The settings on record: in vivo.
Series [4] can be described thus: in vivo. The settings on record: mouse, iv, 3 mg/kg.
The nature of series [5]: Total clearance in chimeric mouse with humanized liver at 0.3 mg/kg, iv by LC-MS/MS method. It counts as ADME, organism-based. Further details: dose 0.3 mg/kg, route intravenous. The settings on record: in vivo.
The nature of series [6]: clinical. The settings on record: human, in vivo, iv.
Description: Total clearance in iv dosed human
Series [7] in a line: Oral clearance in po dosed human. It counts as ADME, organism-based. The settings on record: in vivo.
Series [8] in a line: Unbound fraction in po dosed human plasma. It counts as ADME, organism-based.
The nature of series [9]: Ratio of drug level in blood to plasma in po dosed human. The settings on record: blood and plasma, read-out: Rblood_plasma. It counts as ADME, organism-based.

`CC(C)(C)NCC(O)c1ccc(O)c(CO)c1` (stereo not drawn) [ALBUTEROL]: the fraction unbound in series [1] was 0.925.
`O=C(O)Cc1ccccc1Nc1c(Cl)cccc1Cl` [DICLOFENAC]: the hepatocyte CLint at 10 µM in series [2] was found to be 24.7 µL/min/1e6 cells. The clearance in series [3] worked out at 16.4 mL/min/kg. For the same compound, in [4], the half-life is 36 min.
With `CC(=O)C[C@@H](c1ccccc1)c1c(O)c2ccccc2oc1=O`, the fraction unbound in series [1] came to 0.015. Further, the hepatocyte CLint at 10 µM in series [2] is 1.2 µL/min/1e6 cells. In addition, the clearance in [5] is 0.2 mL/min/kg; in series [6] it was 0.055 mL/min/kg.
The compound `O=S(=O)(c1cccc2cnccc12)N1CCCNCC1` [FASUDIL] had a fraction unbound in series [1] of 0.51.
Compound `Nc1ncc2ncn(CCC(CO)CO)c2n1` [6-DEOXY PENCICLOVIR] gave a CL/F in [7] of 118 mL/min/kg. The same compound registered a fraction unbound in series [8] of 1. Besides, the blood plasma ratio in series [9] came out at 1.2. Also, in series [2], the hepatocyte CLint at 10 µM worked out at 5.3 µL/min/1e6 cells. Further, the clearance in [3] stood at 71.2 mL/min/kg. The same compound showed a half-life in [4] of 6 min.
Compound `Nc1nnc(-c2cccc(Cl)c2Cl)c(N)n1` [LAMOTRIGINE] showed a CL/F in series [7] of 0.3 mL/min/kg. The fraction unbound in [8] worked out at 0.45. Also, the blood plasma ratio in series [9] is 1. For the same compound, in [2], the hepatocyte CLint at 10 µM worked out at 1.4 µL/min/1e6 cells. This compound also showed a clearance in series [3] of 1.4 mL/min/kg. The compound also gave a half-life in [4] of 606 min.
For `CC1=C(CC(=O)O)c2cc(F)ccc2/C1=C\c1ccc([S+](C)[O-])cc1` (stereo not drawn), in [7], the apparent clearance (CL/F) was 3.3 mL/min/kg. Also, in [8], the fraction unbound is 0.069. In addition, the blood plasma ratio in [9] was 1. Besides, the hepatocyte CLint at 10 µM in series [2] came out at 2 µL/min/1e6 cells. The compound also registered a clearance in series [3] of 5.6 mL/min/kg. Further, the half-life in series [4] is 72 min.
For `Nc1ccc(S(=O)(=O)c2ccc(N)cc2)cc1` [DAPSONE], the hepatocyte CLint at 10 µM in series [2] was determined as 2.3 µL/min/1e6 cells. In series [3], this compound displayed a clearance of 2.1 mL/min/kg.
Taken in the same sequence, the figures for `CN1CCN2c3ncccc3Cc3ccccc3C2C1` (stereo not drawn) [MIRTAZAPINE] were 6.3 µL/min/1e6 cells and 30.4 mL/min/kg.
On the same counts, the results for `CCN(C(C)=O)c1cccc(-c2ccnc3c(C#N)cnn23)c1` [ZALEPLON] are 2.3 µL/min/1e6 cells and 48.1 mL/min/kg.

As a reminder, the fraction unbound is the share of the substance not bound to proteins or other matrix. As usually defined, the clearance is the rate of elimination divided by the concentration. By half-life is commonly meant the time needed for the level to fall by half in the phase considered. A high value points to slow loss. For orientation: CL/F means the apparent clearance, not corrected for the fraction that reaches the circulation.

The values are drawn from ChEMBL document CHEMBL3526103, “Prediction of in vivo hepatic clearance and half-life of drug candidates in human using chimeric mice with humanized liver” (Drug Metab Dispos, 2012).
